# Source: patent US20060094710A1, “Piperidine-pyridazones and phthalazones as pde4 inhibitors” (Altana Pharma AG, priority 2002, published 2006)
row,SMILES,melting point
1,COc1ccc(C2=NN(C3CCN(CC(=O)c4cc5ccccc5o4)CC3)C(=O)C3CC=CCC23)cc1OC (centres unmarked) [Compound 2],188 to 189 °C
2,"COc1ccc(C2=NN(C3CCN(C(=O)CCCOc4ccc5[nH]c(=O)ccc5c4)CC3)C(=O)CC2)cc1OC [Compound 15, 6-(4-{4-[3-(3,4-Dimethoxy-phenyl)-6-oxo-5,6-dihydro-4H-pyridazin-1-yl]-piperidin-1-yl}-4-oxo-butoxy)-1H-quinolin-2-one]",169 to 171 °C
3,COc1ccc(C2=NN(C3CCN(CCOCCN)CC3)C(=O)[C@@H]3CC=CC[C@H]23)cc1OC.Cl.Cl,86 to 89 °C
4,"COCCN1CCC(N2N=C(c3ccc(OC)c(OC)c3)[C@H]3CC=CC[C@H]3C2=O)CC1.Cl [Compound 9, (4aS,8aR)-4-(3,4-Dimethoxy-phenyl)-2-[1-(2-methoxy-ethyl)-piperidin-4-yl]-4a,5,8,8a-tetrahydro-2H-phthalazin-1-one hydrochloride]",87 to 90 °C
5,"COc1ccc(C2=NN(C3CCN(C(=O)CS(C)(=O)=O)CC3)C(=O)[C@@H]3CC=CC[C@H]23)cc1OC [Compound 1, (4aS,8aR)-4-(3,4-Dimethoxy-phenyl)-2-[1(2-methanesulfonyl-ethanoyl)-piperidin-4-yl]-4a,5,8,8a-tetrahydro-2H-phthalazin-1-one]",169 to 170 °C
6,COc1ccc(C2=NN(C3CCN(C(=O)CCS(=O)(=O)CCNC(=O)N4CCOCC4)CC3)C(=O)C3CC=CCC23)cc1OC (centres unmarked) [Compound 5],118 to 121 °C
7,"COc1ccc(C2=NN(C3CCN(CCS(C)(=O)=O)CC3)C(=O)[C@@H]3CC=CC[C@H]23)cc1OC.Cl [Compound 11, (4aS,8aR)-4-(3,4-Dimethoxy-phenyl)-2-[1-(2-methanesulfonyl-ethyl)-piperidin-4-yl]-4a,5,8,8a-tetrahydro-2H-phthalazin-1-one hydrochloride]",87 to 90 °C
8,"COc1ccc(C2=NN(C3CCN(Cc4ccc(-n5cnc6ccccc65)cc4)CC3)C(=O)[C@@H]3CC=CC[C@H]23)cc1OC.Cl [Compound 3, (4aS,8aR)-2-[1-(4-Benzimidazol-1-yl-benzyl)-piperidin-4-yl]-4-(3,4-dimethoxy-phenyl)-4a,5,8,8a-tetrahydro-2H-phthalazin-1-one hydrochloride]",147 to 149 °C
